Measurements as given in patent US20080269298A1, “Benzimidazol-1-YL-thiophene compounds for the treatment of cancer” (priority 2002, published 2008).
Structures can show the parent of a compound that is named as a salt.

Key:
[1] = test system: colon (HCT116) tumor cell line; test: Methylene Blue Growth Inhibition Assay, HCT116; format: cell-based; settings: Homo sapiens, HCT-116, 72 h; Cell Line HCT116, 3 days; read-out: MeB IC50
Summary of the method: (§1)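 Methylene blue dye retained by cells after a 3-day, 37° C compound incubation in DMEM/10% FBS (0.3% DMSO) served as the biomass readout at 620 nm. IC50 values were interpolated by nonlinear regression against vehicle wells.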

[2] = test system: Normal Human foreskin fibroblasts (HFF); test: Methylene Blue Growth Inhibition Assay, HFF; format: cell-based; settings: 72 h, Cell Line HFF, 3 days, read-out: MeB IC50
Summary of the method: (§2)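 Growth inhibition is measured as methylene blue-stained biomass (OD 620 nm) after 3 days of compound treatment, relative to vehicle controls. Cells grow in high-glucose DMEM with 10% FBS and 0.3% final DMSO; IC50 comes from nonlinear regression.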

[3] = test system: prostate (PC3) tumor cell line; test: Methylene Blue Growth Inhibition Assay, PC3; format: cell-based; settings: Homo sapiens, 72 h; Cell Line PC3, 3 days; read-out: MeB IC50
Summary of the method: as §1

[4] = target: T1, PLK1 kinase domain (Homo sapiens, UniProt P53350); test: Assay for Inhibition of PLK1 (SPA enzyme activity); format: biochemical; settings: 2 μM ATP, read-out: Ave pIC50 PLK Enzyme Inhibition (converted)
T1 construct: made in house; host or cells: baculovirus-infected T. ni insect cells
T1 sequence (P53350 21-346): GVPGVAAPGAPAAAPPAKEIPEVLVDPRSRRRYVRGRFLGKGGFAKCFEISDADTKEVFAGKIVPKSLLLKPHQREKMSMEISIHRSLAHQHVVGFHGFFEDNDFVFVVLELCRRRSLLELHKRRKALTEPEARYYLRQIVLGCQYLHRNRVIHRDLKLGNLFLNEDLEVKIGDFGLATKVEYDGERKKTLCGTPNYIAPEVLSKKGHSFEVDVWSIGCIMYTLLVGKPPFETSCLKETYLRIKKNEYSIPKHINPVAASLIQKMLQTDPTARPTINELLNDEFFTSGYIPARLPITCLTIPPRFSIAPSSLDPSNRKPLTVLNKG

[5] = test system: lung (H460) tumor cell line; test: Methylene Blue Growth Inhibition Assay, H460; format: cell-based; settings: Homo sapiens, NCI-H460, 72 h; Cell Line H460, 3 days; read-out: MeB IC50
Summary of the method: as §2

[6] = test system: colon (RKO) tumor cell line; test: Methylene Blue Growth Inhibition Assay, RKO; format: cell-based; settings: Homo sapiens, 72 h, 3 days, read-out: MeB IC50
Summary of the method: as §2

[7] = test system: breast tumor (MCF7) cell line; test: Methylene Blue Growth Inhibition Assay, MCF7; format: cell-based; settings: Homo sapiens, 72 h; Cell Line MCF7, 3 days; read-out: MeB IC50
Summary of the method: as §1

SMILES | IC50 [1] | IC50 [2] | IC50 [3] | IC50 [4] | IC50 [5] | IC50 [6] | IC50 [7]
COc1cc2ncn(-c3cc(OCc4ccccc4-c4ccccc4)c(C(N)=O)s3)c2cc1OC [Example 93, 3-(1,1′-Biphenyl-2-ylmethoxy)-5-(5,6-dimethoxy-1H-benzimidazol-1-yl)thiophene-2-carboxamide] | > 10 µM | > 10 µM | > 10 µM | 0.1 to 10 µM | > 10 µM | > 10 µM | > 10 µM
COc1cc2ncn(-c3cc(OCc4ccccc4S(C)(=O)=O)c(C(N)=O)s3)c2cc1OC [Example 99, 5-(5,6-Dimethoxy-1H-benzimidazol-1-yl)-3-{[2-(methylsulfonyl)benzyl]oxy}thiophene-2-carboxamide] | 1 to 10 µM | > 10 µM | > 10 µM | < 0.1 µM | 1 to 10 µM | 1 to 10 µM | 1 to 10 µM
NC(=O)c1sc(-n2cnc3ccc(OCCN4CCCC4)cc32)cc1OCc1ccccc1C(F)(F)F [Example 139, 5-[6-(2-Pyrrolidin-1-ylethoxy)-1H-benzimidazol-1-yl]-3-{[2-(trifluoromethyl)benzyl]oxy}thiophene-2-carboxamide] | 1 to 10 µM | > 10 µM | 1 to 10 µM | < 0.1 µM | 1 to 10 µM | < 1 µM | 1 to 10 µM
NC(=O)c1sc(-n2cnc3ccccc32)cc1NCc1ccccc1C(F)(F)F [Example 133, 5-(1H-Benzimidazol-1-yl)-3-{[2-(trifluoromethyl)benzyl]amino}-thiophene-2-carboxamide] | 1 to 10 µM | > 10 µM | > 10 µM | 0.1 to 10 µM | > 10 µM | 1 to 10 µM | > 10 µM
COc1cc2ncn(-c3cc(OCc4ccccc4C(C)=O)c(C(N)=O)s3)c2cc1OC [Example 105, 3-[(2-Acetylbenzyl)oxy]-5-(5,6-dimethoxy-1H-benzimidazol-1-yl)thiophene-2-carboxamide] | 1 to 10 µM | > 10 µM | > 10 µM | < 0.1 µM | 1 to 10 µM | 1 to 10 µM | 1 to 10 µM
O=C(O)c1sc(-n2cnc3cc(Cl)c(Cl)cc32)cc1OCc1ccco1 [Example 78, 5-(5,6-Dichloro-1H-benzimidazol-1-yl)-3-(2-furylmethoxy)thiophene-2-carboxylic acid] | > 10 µM | > 10 µM | > 10 µM | < 0.1 µM | > 10 µM | > 10 µM | > 10 µM
COc1cc2ncn(-c3cc(OCc4ccccc4[N+](=O)[O-])c(C(N)=O)s3)c2cc1OC [Example 92, 5-(5,6-Dimethoxy-1H-benzimidazol-1-yl)-3-[(2-nitrobenzyl)oxy]thiophene-2-carboxamide] | < 1 µM | 1 to 10 µM | 1 to 10 µM | < 0.1 µM | < 1 µM | < 1 µM | < 1 µM
CC(=O)c1sc(-n2cnc3ccc(Cl)cc32)cc1OCc1ccccc1C [Example 39, 1-{5-(6-Chloro-1H-benzimidazol-1-yl)-3-[(2-methylbenzyl)oxy]thien-2-yl}ethanone] | > 10 µM | > 10 µM | > 10 µM | 0.1 to 10 µM | > 10 µM | > 10 µM | > 10 µM
COC(=O)c1sc(-n2cnc3cc(OC)c(OC)cc32)cc1OS(=O)(=O)c1ccccc1[N+](=O)[O-] [Example 149] | 1 to 10 µM | > 10 µM | > 10 µM | < 0.1 µM | 1 to 10 µM | > 10 µM | > 10 µM
COc1ccc2ncn(-c3cc(OCc4ccccc4C(F)(F)F)c(C(N)=O)s3)c2c1 [Example 118] | 1 to 10 µM | 1 to 10 µM | > 10 µM | < 0.1 µM | < 1 µM | < 1 µM | < 1 µM
COc1cc2ncn(-c3cc(OCC4CCCCO4)c(C(N)=O)s3)c2cc1OC (centres unmarked) [Example 112, 5-(5,6-Dimethoxy-1H-benzimidazol-1-yl)-3-(tetrahydro-2H-pyran-2-ylmethoxy)thiophene-2-carboxamide] | > 10 µM | > 10 µM | > 10 µM | 0.1 to 10 µM | 1 to 10 µM | 1 to 10 µM | > 10 µM
NC(=O)c1sc(-n2c(N)nc3ccccc32)cc1OCc1ccccc1C(F)(F)F [Example 148, 5-(2-Amino-1H-benzimidazol-1-yl)-3-{[2-(trifluoromethyl)benzyl]oxy}thiophene-2-carboxamide] | 1 to 10 µM | > 10 µM | > 10 µM | 0.1 to 10 µM | 1 to 10 µM | 1 to 10 µM | 1 to 10 µM
O=C(O)c1sc(-n2cnc3cc(Cl)c(Cl)cc32)cc1OCc1cccs1 [Example 80, 5-(5,6-Dichloro-1H-benzimidazol-1-yl)-3-(thien-2-ylmethoxy)-thiophene-2-carboxylic acid] | > 10 µM | > 10 µM | > 10 µM | < 0.1 µM | > 10 µM | > 10 µM | > 10 µM
COc1cc2ncn(-c3cc(OCc4cccc(I)c4)c(C(N)=O)s3)c2cc1OC [Example 94] | 1 to 10 µM | 1 to 10 µM | 1 to 10 µM | < 0.1 µM | 1 to 10 µM | 1 to 10 µM | 1 to 10 µM
NC(=O)c1sc(-n2cnc3ccc(OCC(F)(F)F)cc32)cc1OCc1ccccc1C(F)(F)F [Example 87, 5-[6-(2,2,2-Trifluoroethoxy)-1H-benzimidazol-1-yl]-3-{[2-(trifluoromethyl)benzyl]oxy}thiophene-2-carboxamide] | 1 to 10 µM | > 10 µM | > 10 µM | < 0.1 µM | 1 to 10 µM | 1 to 10 µM | 1 to 10 µM
COc1cc2ncn(-c3cc(OCc4ccccc4SC)c(C(N)=O)s3)c2cc1OC [Example 97] | 1 to 10 µM | 1 to 10 µM | 1 to 10 µM | < 0.1 µM | 1 to 10 µM | 1 to 10 µM | 1 to 10 µM
COc1cc2ncn(-c3cc(O)c(C(N)=O)s3)c2cc1OC [Example 152, 5-(5,6-Dimethoxy-1H-benzimidazol-1-yl)-3-hydroxythiophene-2-carboxamide trifluoroacetate] | > 10 µM | > 10 µM | > 10 µM | 0.1 to 10 µM | > 10 µM | > 10 µM | > 10 µM
C=Cc1ccccc1COc1cc(-n2cnc3cc(OC)c(OC)cc32)sc1C(N)=O [Example 103, 5-(5,6-Dimethoxy-1H-benzimidazol-1-yl)-3-[(2-vinylbenzyl)oxy]thiophene-2-carboxamide] | 1 to 10 µM | > 10 µM | > 10 µM | < 0.1 µM | 1 to 10 µM | 1 to 10 µM | 1 to 10 µM
O=C(O)c1sc(-n2cnc3ccc(Cl)cc32)cc1OCc1cccnc1 [Example 72, 5-(6-Chloro-1H-benzimidazol-1-yl)-3-(pyridin-3-ylmethoxy)thiophene-2-carboxylic acid] | > 10 µM | > 10 µM | > 10 µM | < 0.1 µM | > 10 µM | > 10 µM | > 10 µM
COc1cc2ncn(-c3cc(OCc4ccccc4C(F)(F)F)c(C(N)=O)s3)c2cc1OCCN1CCOCC1 [Example 137, 5-(5-(Methyloxy)-6-{[2-(4-morpholinyl)ethyl]oxy}-1H-benzimidazol-1-yl)-3-({[2-(trifluoromethyl)phenyl]methyl}oxy)-2-thiophenecarboxamide] | < 1 µM | > 10 µM | 1 to 10 µM | < 0.1 µM | 1 to 10 µM | 1 to 10 µM | 1 to 10 µM
NC(=O)c1sc(-n2cnc3ccccc32)cc1C#Cc1ccccc1 [Example 129, 5-(1H-Benzimidazol-1-yl)-3-(phenylethynyl)thiophene-2-carboxamide] | > 10 µM | > 10 µM | > 10 µM | 0.1 to 10 µM | > 10 µM | > 10 µM | > 10 µM
NC(=O)c1sc(-n2cnc3ccc(C(F)(F)F)cc32)cc1OCc1ccccc1Br [Example 119, 3-[(2-Bromobenzyl)oxy]-5-[6-(trifluoromethyl)-1H-benzimidazol-1-yl]thiophene-2-carboxamide] | 1 to 10 µM | > 10 µM | > 10 µM | < 0.1 µM | 1 to 10 µM | 1 to 10 µM | 1 to 10 µM
CS(=O)(=O)N1CCC(COc2cc(-n3cnc4cc5c(cc43)OCCO5)sc2C(N)=O)CC1 [Example 124, 5-(6,7-Dihydro-1H-[1,4]dioxino[2,3-f]benzimidazol-1-yl)-3-{[1-(methylsulfonyl)-piperidin-4-yl]methoxy}thiophene-2-carboxamide] | > 10 µM | > 10 µM | > 10 µM | 0.1 to 10 µM | > 10 µM | > 10 µM | > 10 µM
